# Data published in patent publication US20140364368A1, “STIMULUS RESPONSIVE NANOCOMPLEXES AND METHODS OF USE THEREOF” (MASSACHUSETTS INSTITUTE OF TECHNOLOGY, priority 2013, published 2014).
# What was measured:
# [1] = test system: thrombin generation in human plasma; experiment: real-time thrombin generation assay in human plasma
# Description: To further analyze the anticoagulant mechanism of the nanocomplexes, we performed real-time thrombin generation assays in human plasma. For this assay, varying concentrations of nanocomplexes or free heparin were added to 20 μL of control normal human plasma (Thermo Scientific). Real time thrombin generation was measured using the Technothrombin TGA kit (Technoclone) using the RD reagent according to manufacturer instructions. The fluorescence was monitored using a TECAN Infinite M200 Pro and thrombin generation was calculated using the corresponding Excel evaluation software provided by Technoclone.
# mice = experiment: Tail bleeding time after tail transection; format: in vivo; conditions: 200 U/kg intravenously
# Description: To assess the effect of nanocomplex administration on bleeding tail transection on mice was performed five minutes after they were treated intravenously with nanocomplexes. Specifically, mice (n=5-7 per condition) were anesthetized with isofluorane gas and administered nanocomplexes (200 U/kg, n=5), heparin (200 U/kg, n=7), or PBS control (n=5). After 5 minutes, 2 mm of distal mouse tail was removed by scalpel. Bleeding time was determined by lightly dabbing the tail with kimwipe tissues (Kimtech) until bleeding fully ceased for at least 1 minute. All experimental protocols involving animals were approved by the MIT Committee on Animal Care.
# [2] = test system: thromboplastin-induced model of pulmonary thromboembolism; experiment: thromboplastin-induced model of pulmonary thromboembolism; format: in vivo; conditions: mice
# Description: To evaluate the ability of nanocomplexes to prevent thrombosis in vivo, a thromboplastin-induced model of pulmonary thromboembolism was utilized. […] For the pulmonary embolism assay, bovine fibrinogen (Sigma) was reacted with near-infrared fluorochromes (Vivotag-750-NHS, Perkin-Elmer) at a 2:1 fluorophore:protein molar ratio in PBS for 1 hour and purified by column centrifugation (100 kDa cutoff, Millipore) to remove unreacted fluorophores. Ampules of thromboplastin from rabbit brain (Sigma, #44213) were reconstituted with 2 mL of PBS each.
# To ascertain the initial dosing ranges for the nanocomplexes, mice were dosed with thromboplastin and escalating doses of free heparin (40 U/kg, 100 U/kg and 200 U/kg heparin). Deposition of VT750-fibrin in the lungs of the mice was quantified using ex vivo infrared imaging. […] Accordingly, the dose of nanocomplexes corresponding to heparin doses of 200 U/kg was chosen for subsequent experiments.
# Mice (n=5 per condition) were anesthetized with isofluorane gas and co-administered nanocomplexes (200 U/kg), free heparin (200 U/kg), or PBS control and 1 nmol of VT750-fibrinogen via tail vein injection. After 5 minutes, mice were injected with thromboplastin (2 uL/g). After 30 minutes, mice were euthanized with CO2 and the lungs were harvested and imaged on the LI-COR Odyssey Infrared Imaging System. Fibrin deposition was then quantified using ImageJ software. For histologic analysis, paraffin-embedded sections of lungs were prepared (Koch Institute Histology Core). Lungs were first fixed by incubating in 4% paraformaldehyde overnight. Hematoxylin and eosin […] staining of lung sections was used to visualize clots in the lungs.
# [3] = test system: normal human control plasma; experiment: activated partial thromboplastin time (aPTT) clotting assay
# Description: The effect of the nanocomplexes on a physiologic coagulation pathway was tested using a standard activated partial thromboplastin time (aPTT) clotting assay, which is also used to monitor heparin levels of patients. This assay measures the amount of time needed for a plasma sample to form a clot in vitro when the contact pathway of coagulation is triggered by addition of an exogenous aPTT reagent. For the assay, varying concentrations of nanocomplexes or free heparin were added to 50 μl of APTT reagent (Thermo Scientific) at 37° C. for 3 minutes. Subsequently, 50 μl of 25 mM CaCl2 (Sigma) pre-incubated at 37° C. were added to samples and clotting was monitored via absorbance at 605 nm with a SpectraMAX Plus spectrophotometer ([…]).
substance,measurement,setting,value
heparin [free heparin],reduction of ETP,[1]; 1.6 U/mL,~80%
same,lag time (time to initial thrombin formation),[1]; increasing concentrations,prolonged in a dose-dependent manner
same,increase of mean bleeding time over PBS control,mice,greater than 280%
same,mean bleeding time,mice; tail transection after 5 minutes,~9.2 min
same,VT750-fibrin deposition in the lungs,"[2]; 40 U/kg, with thromboplastin",did not significantly reduce
same,VT750-fibrin deposition in the lungs,"[2]; 100 U/kg, with thromboplastin",did not significantly reduce
same,histological analysis of lung microvessels (hematoxylin and eosin),"[2]; 200 U/kg, thromboplastin 2 uL/g",largely patent
same,reduction of VT750-fibrin deposition in the lungs,"[2]; 200 U/kg, with thromboplastin",more than two-fold
same,aPTT clotting time,[3]; 0.4 U/mL,~44 s
same,aPTT clotting time relative to control,[3]; 0.4 U/mL,~1.5 × of control
same,aPTT clotting time,[3]; 0.8 U/mL,~44 s
same,aPTT clotting time relative to control,[3]; 0.8 U/mL,~1.5 fold over control
same,aPTT clotting time,[3]; 2 U/mL,~136 s
same,aPTT clotting time relative to control,[3]; 2 U/mL,~5 fold over control
same,aPTT clotting time relative to control,"[3]; 2 U/mL, listed as heparin",~5 x of control
